Reference: patent US3930838A, “S-benzyl-N,N-disec-butylthiocarbamate and its use as a rice field herbicide and a rice growth stimulant” (priority 1970, dated 1976)

Columns and labels:
Echinocloa spp. [1] = experiment: Activity on Echinocloa in flooded hothouse boxes, first sowing (Example 14); type: in vivo; conditions: 24 days
Procedure: A test was arranged in a hothouse on a set of boxes having a 1,000 cm^2 internal surface. 18 Kg. of sieved rice field earth were put into each box. After leveling, the earth surfaces of each of a set of six boxes were uniformly sprayed with hydroacetone solutions containing, respectively, 0, 0.5, 0.75, 1, 1.25, and 1.5% of M3432. […] Each box was flooded with a 10 cm. water layer measured from the earth surface. The sowing was carried out immediately afterwards with a pre-germinated (cv) RIBE rice seed, employing a quantity of 40 seeds per box.
The same method described in Example 9 was followed, the only variation being in sowing Echinocloa spp. (40 slightly pregerminated seeds per box) instead of rice.
24 Days after the treatment, the results were observed.

Echinocloa spp. [2] = experiment: Post emergence hothouse test No. 2 (Example 16); type: in vivo; conditions: 4, 6, and 8 kg./ha., 26 days; plants max. 10 cm. at treatment
Procedure: A set of boxes having a 1,000 cm^2 internal surface was prepared in a hothouse according to the method described in Example 9. The boxes were sowed with Echinocloa spp. (70 seeds per box). After saturation of the soil, and as soon as the infesting plants emerged from the soil, the boxes were flooded with a 7 cm. layer of water. When the plants reached a maximum height of 3-4 cm., the treatment was effected by spraying the flooding water surfaces with hydroacetone solutions according to the modalities employed in Example 9. 3 days after the treatment, the following results were observed:
A second test was carried out in the same manner as Test No. 1 except that the treatment took place when the infesting plants had reached a maximum of 10 cm. 26 days after such treatment, the following was observed: […]

rice = experiment: Hothouse test on rice in flooded culture, 66 days (Example 9b); type: in vivo, rice cv. RIBE
From the text: A test was arranged in a hothouse on a set of boxes having a 1,000 cm^2 internal surface. 18 Kg. of sieved rice field earth were put into each box. After leveling, the earth surfaces of each of a set of six boxes were uniformly sprayed with hydroacetone solutions containing, respectively, 0, 0.5, 0.75, 1, 1.25, and 1.5% of M3432. 20 Cc. of solution was sprayed into each box, corresponding to 0, 10, 15, 20, 25, and 30 kg./ha., respectively. Each box was flooded with a 10 cm. water layer measured from the earth surface. The sowing was carried out immediately afterwards with a pre-germinated (cv) RIBE rice seed, employing a quantity of 40 seeds per box.
A second test was carried out in a hothouse, employing the identical method and under the identical conditions as in Example 9a.

Q: `CCC(C)N(C(=O)SCc1ccccc1)C(C)CC` (stereo not shown) [M3432, S-benzyl-N,N-disec.butylthiocarbamate] was tested. Which Shoot (Echinocloa spp. [1]; 2 kg./ha.) did it give?
A: 8.5 cm.

Q: What about the Stand (Echinocloa spp. [1]; 2 kg./ha.) of the same compound?
A: 2.5%

Q: What about the Shoot (Echinocloa spp. [1]; 4 kg./ha.) of the same compound?
A: 0 cm.

Q: What about the Stand (Echinocloa spp. [1]; 4 kg./ha.) of the same compound?
A: 0%

Q: And the Shoot (Echinocloa spp. [1]; 6 kg./ha.)?
A: 0 cm.

Q: And the Stand (Echinocloa spp. [1]; 6 kg./ha.)?
A: 0%

Q: What about the Shoot (Echinocloa spp. [1]; 8 kg./ha.) of the same compound?
A: 0 cm.

Q: What about the Stand (Echinocloa spp. [1]; 8 kg./ha.) of the same compound?
A: 0%

Q: And the Shoot (Echinocloa spp. [2])?
A: 0 cm.

Q: What about the Stand (Echinocloa spp. [2]) of the same compound?
A: 0%

Q: What about the Main root (rice; 10 kg./ha.) of the same compound?
A: 12.64 cm.

Q: What about the “Roots, weight on dry basis” value (rice; 10 kg./ha.) of the same compound?
A: 5.550 g. per 100 plant

Q: And the Secondary roots (rice; 10 kg./ha.)?
A: 12.20 No.

Q: And the Shoot (rice; 10 kg./ha.)?
A: 16.74 cm.

Q: And the “Shoot, weight on dry basis” value (rice; 10 kg./ha.)?
A: 8.000 g. per 100 plant

Q: What about the Sprouted plants (rice; 10 kg./ha.) of the same compound?
A: 45.0%

Q: What about the Main root (rice; 15 kg./ha.) of the same compound?
A: 13.54 cm.

Q: What about the “Roots, weight on dry basis” value (rice; 15 kg./ha.) of the same compound?
A: 6.800 g. per 100 plant

Q: And the Secondary roots (rice; 15 kg./ha.)?
A: 13.30 No.

Q: What about the Shoot (rice; 15 kg./ha.) of the same compound?
A: 18.16 cm.

Q: What about the “Shoot, weight on dry basis” value (rice; 15 kg./ha.) of the same compound?
A: 11.800 g. per 100 plant

Q: And the Sprouted plants (rice; 15 kg./ha.)?
A: 45.0%

Q: What about the Main root (rice; 20 kg./ha.) of the same compound?
A: 17.16 cm.

Q: And the “Roots, weight on dry basis” value (rice; 20 kg./ha.)?
A: 10.480 g. per 100 plant

Q: What about the Secondary roots (rice; 20 kg./ha.) of the same compound?
A: 21.00 No.

Q: And the Shoot (rice; 20 kg./ha.)?
A: 26.00 cm.

Q: What about the “Shoot, weight on dry basis” value (rice; 20 kg./ha.) of the same compound?
A: 18.050 g. per 100 plant

Q: What about the Sprouted plants (rice; 20 kg./ha.) of the same compound?
A: 60.0%

Q: And the Main root (rice; 25 kg./ha.)?
A: 10.26 cm.

Q: And the “Roots, weight on dry basis” value (rice; 25 kg./ha.)?
A: 4.250 g. per 100 plant

Q: What about the Secondary roots (rice; 25 kg./ha.) of the same compound?
A: 10.05 No.

Q: What about the Shoot (rice; 25 kg./ha.) of the same compound?
A: 15.00 cm.

Q: And the “Shoot, weight on dry basis” value (rice; 25 kg./ha.)?
A: 6.875 g. per 100 plant

Q: What about the Sprouted plants (rice; 25 kg./ha.) of the same compound?
A: 40.0%

Q: And the Main root (rice; 30 kg./ha.)?
A: 8.21 cm.

Q: What about the “Roots, weight on dry basis” value (rice; 30 kg./ha.) of the same compound?
A: 2.800 g. per 100 plant

Q: And the Secondary roots (rice; 30 kg./ha.)?
A: 8.00 No.

Q: And the Shoot (rice; 30 kg./ha.)?
A: 14.50 cm.

Q: What about the “Shoot, weight on dry basis” value (rice; 30 kg./ha.) of the same compound?
A: 5.050 g. per 100 plant

Q: What about the Sprouted plants (rice; 30 kg./ha.) of the same compound?
A: 40.0%
